Consider one compound from patent publication US20210164997A1, “HSP70 PROTEIN LEVELS IN PBMC SAMPLES AS BIOMARKER FOR DISEASE” (Orphazyme A/S, priority 2018, published 2021).

Structures are written as SMILES.

In experiment [1] the test system is Hsp70 (HspA1A and HspA1B) in PBMC. The experiment in a line: Hsp70 level in PBMC samples of NPC patients treated with arimoclomol (ELISA). The format is in vivo, human. As for the experimental part: Whole blood samples were collected in 6 mL EDTA tubes at the clinical study sites and shipped ambient to a central laboratory for sample preparation.
Clinical study samples (n=26) were obtained from individuals with Niemann Pick disease Type C (NPC patients), who were 2 to 18 years of age, diagnosed with NPC, had at least one neurological symptom and had preserved ability to walk with assistance. Patients were maintained on standard therapy during the study. Samples were collected at a first clinical study visit (inclusion) and at a second clinical study visit 6 to 14 months following the first visit.
Plasma was separated from whole blood by centrifugation at room temperature. Blood volume was restored in PBS and PBMCs were isolated by density gradient centrifugation using Histopaque™. Viable PBMC cell count was determined by flow cytometry. Aliquots of 1 mio. PBMC were generated and stored frozen at −70° C.
Hsp70 was quantified using the Human/Mouse/Rat total HSP70 DuoSet® IC ELISA kit (R&D Systems). Prior to analysis of the clinical study samples, the analytical method had been qualified for determination of Hsp70 in human PBMC samples. The Human/Mouse/Rat total HSP70 DuoSet® IC ELISA kit detects the levels of HspA1A and HspA1B with no cross-reactivity of HspA5 and HspA8.
The materials and methods were performed as described in Example 1.
The Hsp70 concentration was measured in homogenates of Peripheral Blood Mononuclear Cells (PBMC). Hsp70 was determined in an observational study (FIGS. 4 and 5), at screening (pretreatment) and then again after 6-14 months (baseline). Patients were treated for 12 months with arimoclomol (Clinicaltrials.gov identifier NCT02612129). Hsp70 levels were analyzed by the Wilcoxon signed rank test for the 12 patients on arimoclomol with baseline and 12 months data point comparing the Hsp70 levels before and after 12 months of treatment.

The test system of experiment [2] is mutant NPC1 mice. The conditions noted are these: cited from earlier work.
Where [3] appears, read: PBMC homogenates, 12 months of treatment vs baseline, n=12.

`[O-][n+]1cccc(/C(Cl)=N/OC[C@H](O)CN2CCCCC2)c1` [arimoclomol, N-[2-hydroxy-3-(1-piperidinyl)-propoxy]-pyridine-1-oxide-3-carboximidoyl chloride]: in experiment [1] (setting [3]), the “Hsp70 change from baseline, Median” value worked out at 1175.5 pg/mL; the “Hsp70 change from baseline, Min-max” value lay within 234.7 to 6509.0 pg/mL; the “Hsp70 change from baseline, mean (SD)” value is 1815.0 (1754.6) pg/mL. For the same compound, the “PBMC-level of Hsp70 compared to baseline” value in experiment [1] (treatment for 12 months) is given as “significantly increased”. In experiment [2], the “neuronal as well as visceral pathology” value is “reversed” and the “size of the lysosomal compartment” value is on record as “reduced”.
